Laboratory results: ChEMBL document CHEMBL5385844, “Discovery of novel imidazole chemotypes as isoform-selective JNK3 inhibitors for the treatment of Alzheimer's disease” (Eur J Med Chem, 2023)
Calls of active or inactive are those of the source. No cut-off for these calls is given here.

What was measured:
[1] = target: Mitogen-activated protein kinase 10 (Homo sapiens, UniProt P53779); test: Inhibition of human JNK3 incubated for 40 mins in presence of ATP and [gamma33P-ATP] by scintillation counting method; details: read-out: IC50
[2] = target: T1, Mitogen-activated protein kinase 8 (Homo sapiens, UniProt P45983); test: Inhibition of human JNK1 incubated for 40 mins in presence of ATP and [gamma33P-ATP] by scintillation counting method
[3] = target: T2, Mitogen-activated protein kinase 9 (Homo sapiens, UniProt P45984); test: Inhibition of human JNK2 incubated for 40 mins in presence of ATP and [gamma33P-ATP] by scintillation counting method
Cortical neurone = test: Neuroprotective activity against Amyloid beta (1 to 42)-induced toxicity in rat cortical neuron assessed as cell viability measured after 24 to 48 hrs by MTT assay; assay type: functional, cell-based; details: time 24-48 hrs
[4] = target: T1, Mitogen-activated protein kinase 8; test: Inhibition of JNK1 (unknown origin) assessed as incorporation of 33P-ATP
[5] = target: T2, Mitogen-activated protein kinase 9; test: Inhibition of JNK2 (unknown origin) assessed as incorporation of 33P-ATP

T2 sequence (P45984 whole entry): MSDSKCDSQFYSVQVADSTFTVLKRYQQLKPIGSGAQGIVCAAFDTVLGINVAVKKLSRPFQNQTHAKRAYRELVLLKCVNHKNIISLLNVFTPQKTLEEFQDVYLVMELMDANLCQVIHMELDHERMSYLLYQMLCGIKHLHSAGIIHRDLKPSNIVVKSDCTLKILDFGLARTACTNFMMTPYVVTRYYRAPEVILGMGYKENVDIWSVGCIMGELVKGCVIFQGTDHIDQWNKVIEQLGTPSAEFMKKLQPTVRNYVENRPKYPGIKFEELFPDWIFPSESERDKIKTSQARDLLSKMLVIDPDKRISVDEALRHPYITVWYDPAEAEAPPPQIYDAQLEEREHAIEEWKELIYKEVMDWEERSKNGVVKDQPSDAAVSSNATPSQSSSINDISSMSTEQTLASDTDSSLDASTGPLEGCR
Sequence of Mitogen-activated protein kinase 10 (P53779 whole entry): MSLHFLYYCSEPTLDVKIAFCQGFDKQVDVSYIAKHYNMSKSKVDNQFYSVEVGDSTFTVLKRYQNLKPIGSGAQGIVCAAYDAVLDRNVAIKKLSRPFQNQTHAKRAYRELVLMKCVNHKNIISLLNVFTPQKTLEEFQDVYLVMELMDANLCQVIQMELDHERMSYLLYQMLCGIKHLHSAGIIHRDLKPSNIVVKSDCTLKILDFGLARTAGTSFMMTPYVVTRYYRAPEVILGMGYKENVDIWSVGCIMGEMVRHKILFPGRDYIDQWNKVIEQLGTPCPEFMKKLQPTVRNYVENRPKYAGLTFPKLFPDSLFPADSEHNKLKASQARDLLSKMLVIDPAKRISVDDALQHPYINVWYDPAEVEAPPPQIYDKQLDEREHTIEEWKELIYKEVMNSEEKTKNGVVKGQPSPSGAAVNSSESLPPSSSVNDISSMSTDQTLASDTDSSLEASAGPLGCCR
T1 sequence (P45983 whole entry): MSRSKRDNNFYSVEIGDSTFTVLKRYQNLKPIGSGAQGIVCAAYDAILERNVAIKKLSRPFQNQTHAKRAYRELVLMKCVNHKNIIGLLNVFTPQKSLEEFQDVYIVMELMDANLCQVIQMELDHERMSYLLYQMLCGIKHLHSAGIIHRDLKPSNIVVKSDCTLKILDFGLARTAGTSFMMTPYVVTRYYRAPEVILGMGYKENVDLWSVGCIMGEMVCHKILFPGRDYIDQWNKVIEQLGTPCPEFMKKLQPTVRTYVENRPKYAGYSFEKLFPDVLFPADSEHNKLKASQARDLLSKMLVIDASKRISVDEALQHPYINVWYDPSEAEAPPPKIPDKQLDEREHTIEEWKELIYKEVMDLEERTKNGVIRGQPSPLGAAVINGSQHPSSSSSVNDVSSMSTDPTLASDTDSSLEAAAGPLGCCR

IC50 [1] | SMILES | further results
1.52 µM | N#CCc1cnc(C2=CC3OCCOC3C=C2)n1-c1ccnc(N[C@H]2CCCN(C(=O)C3CC3)C2)n1 (some centres not stated) | –
> 10 µM | N#CCc1cnc(-c2ccc(Cl)c(Cl)c2)n1-c1ccnc(NC(=O)NC2CCCN(C(=O)C3CC3)C2)n1 (configuration not stated) | IC50 [2]: > 10 µM; IC50 [3]: > 10 µM
6.27 µM | N#CCc1cnc(-c2ccc3c(c2)OCCO3)n1-c1ccnc(NC2CCCCC2)n1 | –
> 10 µM | N#CCc1cnc(C2=CC3OCCOC3C=C2)n1-c1ccnc(N[C@H]2CCCNC2)n1 (some centres not stated) | –
0.055 µM | N#CCc1cnc(C2=CC3OCOC3C=C2)n1-c1ccnc(N[C@H]2CCCN(C(=O)C3CC3)C2)n1 (some centres not stated) | –
> 10 µM | C[C@@H](O)CNc1nccc(-n2c(CC#N)cnc2-c2ccc3c(c2)OCO3)n1 | –
> 10 µM | N#CCc1cnc(-c2ccc3c(c2)OCCO3)n1-c1ccnc(NC2CCOCC2)n1 | –
8.56 µM | N#CCc1cnc(-c2ccc3c(c2)OCO3)n1-c1ccnc(NC2CCOCC2)n1 | –
> 10 µM | N#CCc1cnc(-c2ccc3ccccc3n2)n1-c1ccnc(N[C@H]2CCCNC2)n1 | –
9.84 µM | C[C@@H](O)CNc1nccc(-n2c(CC#N)cnc2-c2ccc3c(c2)OCCO3)n1 | –
> 10 µM | N#CCc1cnc(-c2ccc3ccccc3n2)n1-c1ccnc(NC2CCCCC2)n1 | –
– | Cc1ccc(-c2ncn(-c3ccc(Nc4nccc(-c5cccc(N6CCOCC6)c5)n4)cc3)n2)cn1 | Activity (Cortical neurone): inactive
0.01 µM | O=C(C1CC1)N1CCC[C@H](Nc2nccc(-n3c(-c4ccc5c(c4)OCCO5)nc4cc(O)c(O)cc43)n2)C1 | IC50 [4]: > 10 µM; IC50 [5]: ~1 µM
6.76 µM | C[C@@H](O)CNc1nccc(-n2c(CC#N)cnc2-c2ccc(Cl)c(Cl)c2)n1 | –
0.321 µM | N#CCc1cnc(-c2ccc3ccccc3c2)n1-c1ccnc(NC2CCOCC2)n1 | –
0.29 µM | N#CCc1cnc(-c2ccc(Cl)c(Cl)c2)n1-c1ccnc(NC2CCOCC2)n1 | –
0.611 µM | N#CCc1cnc(-c2ccc(Cl)c(Cl)c2)n1-c1ccnc(NC2CCCCC2)n1 | –
> 10 µM | C[C@@H](O)CNc1nccc(-n2c(CC#N)cnc2-c2ccc3ccccc3n2)n1 | –
13.3 µM | N#CCc1cnc(-c2ccc(Cl)c(Cl)c2)n1-c1ccnc(N[C@H]2CCCNC2)n1 | –
0.007 µM | N#CCc1cnc(-c2ccc3ccccc3c2)n1-c1ccnc(Nc2cccc(C(=O)C3CC3)c2)n1 | IC50 [2]: 1.73 µM; IC50 [3]: 0.287 µM
4.96 µM | C[C@@H](O)CNc1nccc(-n2c(CC#N)cnc2-c2ccc3ccccc3c2)n1 | –
